The values below are quoted from earlier work in US20250304714A1, “Methods of Treating Metastatic Castration-Resistant Prostate Cancer with Bispecific Anti-PSMA x Anti-CD3 Antibodies Alone or in Combination with Anti-PD-1 Antibodies” (Regeneron Pharmaceuticals, Inc., priority 2022, published 2025).

For series [1] the following is noted: multiple phase 1 to 3 studies, prostate cancer patients; cited from earlier work.
For series [2] the following is noted: intended dose ˜9±1 mCi per IV injection; cited from earlier work.

Take `O=C(O)CC[C@H](NC(=O)N[C@@H](CCCCNC(=O)c1ccc(F)nc1)C(=O)O)C(=O)O` [DCFPyL]: the tolerability entry in series [1] is recorded as “well tolerated”. Besides, the “Radiation dose from the PET/CT scan” value in series [2] is reported as “about 7.4 mSv”.
